From patent US5382586A, “Aryl (or heteroaryl)piperazinylalkylazole derivatives, their preparation and their application as medicaments” (priority 1991, dated 1995)

Key:
[1] = system: conditioned avoidance response in male Wistar rats; assay: conditioned avoidance response test (inhibition of the conditioned avoidance response; anxiolytic/tranquillising activity); assay type: in vivo, rat (male Wistar); conditions: rat; for Activity % (inhibition of the conditioned avoidance response): D = 80 mg/kg, p.o., 45 min before test; for ED50: po, 0.75 h
Method: Male Wistar rats weighing 200 grammes which have been trained to jump over a barrier in an avoidance and escape cage (shuttle box) (Letica, reference LI 910 and LI 2700) within 30 seconds of their being introduced into the cage are used in this test.
The products having an anxiolytic or tranquillising activity suppress the conditioned avoidance response.
Training: day one: 11 trials at 3 minute intervals. Electric shock to the paws after 30 seconds (5 mA, 0.1 s, 10 s).
Days two and three: 2 trials per day, with the selected rats only [sum of the scores for the first day (with the exception of the first trial)>14].
Test day: groups formed by selected rats. Oral administration of the product or the vehicle 45 minutes before the start of the study.

[2] = system: norepinephrine-induced death in rats; assay: norepinephrine antagonism test in rats (antihypertensive activity); assay type: in vivo, rat (male Wister); conditions: for Activity % (norepinephrine antagonistic antihypertensive activity): D = 40 mg/kg, i.p., rat, norepinephrine 1.25 mg/kg i.v. after 2 hours; for ED50: Rattus norvegicus, ip, 2 h, read-out: ED50 (norepinephrine antagonistic antihypertensive activity)
Method: This activity is manifested by the protection of animals before death induced by an intravenous injection of norepinephrine, which produces a hypertensive attack in rats.
Male Wister rats weighing 200 grammes are used in this test. The product to be studied is administered intraperitoneally and 1.25 mg/kg (i.v.) of norepinephrine are administered after 2 hours.
The initial administration dose in these studies is 40 mg/kg (i.p.).

[3] = system: mice, abstinence syndrome induced by cocaine, diazepam, alcohol or nicotine; assay: light box/dark box test: inhibition of the abstinence syndrome; assay type: in vivo, mouse; set-up: Time in box, dark (D) / Latent period L-D: unit not given here
Method: The light box/dark box test described by B. Costall et al. (J. Phar. Pharmacol., 1988, 40: 494-500) is used. The mouse is placed in the light zone of a box divided into two compartments, one brightly illuminated, the light box, and the other with little illumination, the dark box.
1) The number of times the mouse stands up on the hind paws in each compartment during a 5 minute period is counted (see Column 1 of Table V).
2) The activity in each compartment is given by counting the number of crossings through the squares which form the divisions of each compartment (see Column 2 of Table V).
3) The time passed in the dark box during the 5 minute counting period is determined (see Column 3 of Table 5).
4) The initial latent period is determined, that is to say the time which elapses after the animal is placed in the light box, at the start of the test, before it enters the dark box (see Column 4 of Table 5).
1) Dependency on a given treatment (diazepam, cocaine, alcohol or nicotine) employing daily administration over a period of 7 or 14 days.
Diazepam: 10 mg/kg i.p. twice per day over a period of 7 days.
Cocaine: 1 mg/kg i.p. over a period of 14 days.
Alcohol: Administered at 8% weight/volume in the drinking water over a period of 14 days. Nicotine: 0.1 mg/kg i.p. twice per day over a period of 7 days.
3) Other different groups receive, in addition to diazepam, cocaine, alcohol or nicotine, a concomitant treatment with products which are the subject of the present invention and, by way of comparison, with buspirone or ipsapirone.
The product described and the doses tested were: 4,5-dichloro-2-methyl-1-{4-[4-(2-pyrimidinyl)-1-piperazinyl]-butyl}-1H-imidazole citrate.
1 μg/kg p.o. twice per day.

[4] = 24 h after stopping alcohol (alone, or with the named product; Ex. 42 at 1 μg/kg p.o. twice per day)
[5] = 24 h after stopping cocaine (alone, or with the named product; Ex. 42 at 1 μg/kg p.o. twice per day)
[6] = 24 h after stopping diazepam (alone, or with the named product; Ex. 42 at 1 μg/kg p.o. twice per day)
[7] = 24 h after stopping nicotine (alone, or with the named product; Ex. 42 at 1 μg/kg p.o. twice per day)

c1ccc(-c2c(-c3ccccc3)n(CCCCN3CCN(c4ncccn4)CC3)c3ccccc23)cc1 [Example 4]
Activity % (inhibition of the conditioned avoidance response) [1]: 30% | Activity % (norepinephrine antagonistic antihypertensive activity) [2]: 0%

NC(=O)c1cnn(CCCCN2CCN(c3ncccn3)CC2)c1 [Example 5, 4-carboxamido-1-{4-[4-(2-pyrimidinyl)-1-piperazinyl]-butyl}-1H-pyrazole]
Activity % (inhibition of the conditioned avoidance response) [1]: 68% | ED50 [1]: 33.5 mg/kg | Activity % (norepinephrine antagonistic antihypertensive activity) [2]: 0%

O=C(O)c1cnn(CCCCN2CCN(c3ncccn3)CC2)c1 [Example 6, 4-carboxy-1-{4-[4-(2-pyrimidinyl)-1-piperazinyl]-butyl}-1H-pyrazole]
Activity % (inhibition of the conditioned avoidance response) [1]: 57% | ED50 [1]: 44.3 mg/kg | Activity % (norepinephrine antagonistic antihypertensive activity) [2]: 75% | ED50 [2]: 31.7 mg/kg

Cc1cc(C(F)(F)F)n(CCCCN2CCN(c3ncccn3)CC2)n1 [Example 7]
Activity % (inhibition of the conditioned avoidance response) [1]: 74% | ED50 [1]: 29 mg/kg | Activity % (norepinephrine antagonistic antihypertensive activity) [2]: 0%

c1ccc(-c2ncn(CCCCN3CCN(c4ncccn4)CC3)c2-c2ccccc2)cc1 [Example 8]
Activity % (inhibition of the conditioned avoidance response) [1]: 29% | Activity % (norepinephrine antagonistic antihypertensive activity) [2]: 0%

c1ccc(-c2nc(-c3ccccc3)n(CCCCN3CCN(c4ncccn4)CC3)c2-c2ccccc2)cc1 [Example 9]
Activity % (inhibition of the conditioned avoidance response) [1]: 8% | Activity % (norepinephrine antagonistic antihypertensive activity) [2]: 0%

O=C1c2ccccc2S(=O)(=O)N1CCCCN1CCN(c2ncccn2)CC1 [Ipsapirone]
Activity % (inhibition of the conditioned avoidance response) [1]: 98% | Activity within 5 min period, dark box (D) [3, 4]: 80 | Activity within 5 min period, light box (L) [3, 4]: 36 | Latent period L-D [3, 4]: 10 | Number of times standing erect within 5 min. period, dark box (D) [3, 4]: 75 | Number of times standing erect within 5 min. period, light box (L) [3, 4]: 21 | Time in box, dark (D) [3, 4]: 35 | Activity within 5 min period, dark box (D) [3, 5]: 85 | Activity within 5 min period, light box (L) [3, 5]: 18 | Latent period L-D [3, 5]: 8 | Number of times standing erect within 5 min. period, dark box (D) [3, 5]: 89 | Number of times standing erect within 5 min. period, light box (L) [3, 5]: 11 | Time in box, dark (D) [3, 5]: 62 | Activity within 5 min period, dark box (D) [3, 6]: 88 | Activity within 5 min period, light box (L) [3, 6]: 17 | Latent period L-D [3, 6]: 8 | Number of times standing erect within 5 min. period, dark box (D) [3, 6]: 82 | Number of times standing erect within 5 min. period, light box (L) [3, 6]: 15 | Time in box, dark (D) [3, 6]: 90 | Activity within 5 min period, dark box (D) [3, 7]: 98 | Activity within 5 min period, light box (L) [3, 7]: 18 | Latent period L-D [3, 7]: 3 | Number of times standing erect within 5 min. period, dark box (D) [3, 7]: 84 | Number of times standing erect within 5 min. period, light box (L) [3, 7]: 9 | Time in box, dark (D) [3, 7]: 70 | abstinence syndrome ([3]; induced by alcohol): inhibits the abstinence syndrome | abstinence syndrome ([3]; induced by diazepam, cocaine and nicotine): maintains the abstinence syndrome

CN1CCC[C@H]1c1cccnc1 [Nicotine]
Activity within 5 min period, dark box (D) ([3]; mouse, in vivo): 25 | Activity within 5 min period, light box (L) ([3]; mouse, in vivo): 70 | Latent period L-D ([3]; mouse, in vivo): 26 | Number of times standing erect within 5 min. period, dark box (D) ([3]; mouse, in vivo): 23 | Number of times standing erect within 5 min. period, light box (L) ([3]; mouse, in vivo): 66 | Time in box, dark (D) ([3]; mouse, in vivo): 25 | Activity within 5 min period, dark box (D) ([3]; mouse, in vivo, po): 147 | Activity within 5 min period, light box (L) ([3]; mouse, in vivo, po): 14 | Latent period L-D ([3]; mouse, in vivo, po): 2 | Number of times standing erect within 5 min. period, dark box (D) ([3]; mouse, in vivo, po): 125 | Number of times standing erect within 5 min. period, light box (L) ([3]; mouse, in vivo, po): 10 | Time in box, dark (D) ([3]; mouse, in vivo, po): 78

c1ccc(CC2=NCCN2)cc1 [Tolazoline, reference compound]
Activity % (norepinephrine antagonistic antihypertensive activity) [2]: 100% | ED50 [2]: 2.97 mg/kg
